The test system of one data set is HL-60. Description: Cytotoxicity against human HL60 cells assessed as decrease in cell number after 24 hrs by MTT assay. Format: functional, cell-based. The note with it: HL-60, 24 h.
A further data set has as its system U-937. As to the kind of experiment: Cytotoxicity against human U937 cells assessed as decrease in cell number after 24 hrs by MTT assay. Format: functional, cell-based. Particulars: U-937, 24 h. For orientation: Formazan colour is commonly taken as a measure of viable cells.
The next data set deals with Artemia. Description: Toxicity in brine shrimps. The note with it: in vivo. Format: organism-based.
The test system of the next data set is Escherichia coli. As to the kind of experiment: Antibacterial activity against Escherichia coli by paper disc assay method. Format: functional, organism-based.
In the next data set the test system is Pseudomonas syringae. Description: Antibacterial activity against Pseudomonas syringae by paper disc assay method. It is filed as functional, organism-based.
In a further data set the test system is Staphylococcus aureus. As to the kind of experiment: Antibacterial activity against Staphylococcus aureus by paper disc assay method. It is filed as functional, organism-based.
The next data set relates to Bacillus subtilis. As to the kind of experiment: Antibacterial activity against Bacillus subtilis by paper disc assay method. Format: functional, organism-based.

The structures appear in SMILES notation. Converted amounts (≈) assume the structure as drawn. The source made the active and inactive calls. No cut-off for these calls is given here.

What is called IC50 is the concentration needed to halve the response being measured. Regarding `BrCCOc1c(Br)cc(Br)cc1Oc1ccc(Br)cc1Br`, the IC50 with HL-60 was 26.2 mg/L (≈ 43 µM); in the data set with U-937 it was 32.5 mg/L (≈ 53.4 µM).

`Brc1ccc(Oc2cc(Br)cc(Br)c2OCCCCCN2CCN(c3ccccc3)CC2)c(Br)c1`: the values for the concentration for half-maximal inhibition (IC50) in the data set on HL-60 and in the data set on U-937 were 41.6 mg/L (≈ 56.8 µM) and 42.5 mg/L (≈ 58 µM), respectively.

The LC50 is the concentration that kills 50% of the test population. Read a high LC50 as lower toxicity. Consider `Oc1c(Br)cc(Br)cc1Oc1ccc(Br)cc1Br`, for which the values for the concentration for half-maximal inhibition (IC50) in the data set on HL-60 and in the data set with U-937 were 19.3 mg/L (≈ 38.5 µM) and 22.5 mg/L (≈ 44.8 µM), respectively. Moreover, the LC50 with Artemia was 12.8 ppm.

Consider `OCCCOc1c(Br)cc(Br)cc1Oc1ccc(Br)cc1Br`, for which the concentration for half-maximal inhibition (IC50) with HL-60 was 29.9 mg/L (≈ 53.4 µM); with U-937, 32.3 mg/L (≈ 57.7 µM).

For the compound `OCCOc1c(Br)cc(Br)cc1Oc1ccc(Br)cc1Br`, the IC50 turned out to be 28.2 mg/L (≈ 51.7 µM) in the data set with HL-60 and 34.5 mg/L (≈ 63.2 µM) in the data set with U-937.

With `Brc1ccc(Oc2cc(Br)cc(Br)c2OCc2ccccc2)c(Br)c1`, the IC50 came out at 27.9 mg/L (≈ 47.1 µM) in the data set with HL-60 and 29 mg/L (≈ 49 µM) with U-937.

Consider `Cc1ccc(S(=O)(=O)n2nc(N3CCN(CCCCCOc4c(Br)cc(Br)cc4Oc4ccc(Br)cc4Br)CC3)c3cc([N+](=O)[O-])ccc32)cc1`, for which the results for the concentration for half-maximal inhibition (IC50) in the data set with HL-60 and in the data set with U-937 were 52.5 mg/L (≈ 54 µM) and 68.5 mg/L (≈ 70.5 µM), respectively.

In the case of `CN1CCN(CCCCCOc2c(Br)cc(Br)cc2Oc2ccc(Br)cc2Br)CC1`, the IC50 amounted to 48.3 mg/L (≈ 72.1 µM) in the data set with HL-60 and 49.1 mg/L (≈ 73.3 µM) with U-937.

For the compound `Brc1ccc(Oc2cc(Br)cc(Br)c2OCCCCCN2CCN(C/C=C/c3ccccc3)CC2)c(Br)c1`, the figures for the 50% inhibitory concentration (IC50) in the data set with HL-60 and in the data set with U-937 were 47.2 mg/L (≈ 61.1 µM) and 32.7 mg/L (≈ 42.3 µM), respectively.

`COc1cc([C@@H]2c3cc4c(cc3[C@@H](O[C@@H]3O[C@@H]5CO[C@@H](C)O[C@H]5[C@H](O)[C@H]3O)[C@H]3COC(=O)[C@H]23)OCO4)cc(OC)c1O` [ETOPOSIDE]: in the data set on HL-60, the 50% inhibitory concentration (IC50) was determined as 1.1 mg/L (≈ 1.87 µM).

As for `C=CCOc1c(Br)cc(Br)cc1Oc1ccc(Br)cc1Br`, the 50% inhibitory concentration (IC50) in the data set with HL-60 worked out at 27.9 mg/L (≈ 51.5 µM); in the data set on U-937 it was 29 mg/L (≈ 53.5 µM).

As to `COc1ccccc1N1CCN(CCCCCOc2c(Br)cc(Br)cc2Oc2ccc(Br)cc2Br)CC1`, the results for the half-maximal inhibitory concentration (IC50) in the data set on HL-60 and in the data set with U-937 were 32.2 mg/L (≈ 42.2 µM) and 37.5 mg/L (≈ 49.2 µM), respectively.

On to `COc1c(Br)cc(Br)cc1Oc1ccc(Br)cc1Br`, for which the IC50 in the data set with HL-60 was 28.2 mg/L (≈ 54.7 µM); in the data set on U-937 it was 34.5 mg/L (≈ 66.9 µM). Besides, the result with Escherichia coli, with Pseudomonas syringae, in the data set with Staphylococcus aureus and with Bacillus subtilis was Active. Besides, the 50% lethal concentration (LC50) in the data set on Artemia is on record as 19.28 ppm.

For `BrCCCCOc1c(Br)cc(Br)cc1Oc1ccc(Br)cc1Br`, the IC50 in the data set on HL-60 worked out at 25.9 mg/L (≈ 40.7 µM); in the data set on U-937 it was 29 mg/L (≈ 45.5 µM).

With `Brc1ccc(Oc2cc(Br)cc(Br)c2OCCCCCN2CCOCC2)c(Br)c1`, the IC50 in the data set on HL-60 came to 50.5 mg/L (≈ 76.9 µM); with U-937, 39.8 mg/L (≈ 60.6 µM).

As to `CC(=O)Oc1c(Br)cc(Br)cc1Oc1ccc(Br)cc1Br`, the IC50 in the data set with HL-60 worked out at 29.9 mg/L (≈ 55 µM); in the data set with U-937 it was 32.3 mg/L (≈ 59.4 µM). In addition, the outcome with Escherichia coli, in the data set on Pseudomonas syringae, with Staphylococcus aureus and in the data set with Bacillus subtilis was Active. The compound further yielded an LC50 in the data set with Artemia of 23.28 ppm.

For `C#CCOc1c(Br)cc(Br)cc1Oc1ccc(Br)cc1Br`, the IC50 in the data set with HL-60 was determined as 29.7 mg/L (≈ 55 µM); with U-937, 29.5 mg/L (≈ 54.6 µM).

As to `BrCCCCCCOc1c(Br)cc(Br)cc1Oc1ccc(Br)cc1Br`, the IC50 came out at 37.8 mg/L (≈ 56.9 µM) in the data set with HL-60 and 33.8 mg/L (≈ 50.8 µM) in the data set on U-937.

With `BrCCCCCOc1c(Br)cc(Br)cc1Oc1ccc(Br)cc1Br`, the values for the half-maximal inhibitory concentration (IC50) in the data set with HL-60 and in the data set on U-937 were 25.7 mg/L (≈ 39.5 µM) and 29.5 mg/L (≈ 45.3 µM), respectively.

On to `CCOC(=O)C(C)Oc1c(Br)cc(Br)cc1Oc1ccc(Br)cc1Br` (stereo not drawn), for which the concentration for half-maximal inhibition (IC50) in the data set on HL-60 came to 35.7 mg/L (≈ 59.3 µM); with U-937, 39.5 mg/L (≈ 65.6 µM).

With `BrCCCOc1c(Br)cc(Br)cc1Oc1ccc(Br)cc1Br`, the IC50 amounted to 29.9 mg/L (≈ 48 µM) in the data set with HL-60 and 30.3 mg/L (≈ 48.7 µM) with U-937.

With `CC(C)(C)C(=O)C(C#N)Oc1c(Br)cc(Br)cc1Oc1ccc(Br)cc1Br` (stereo not drawn), the values for the IC50 with HL-60 and in the data set with U-937 were 29.2 mg/L (≈ 46.7 µM) and 32.5 mg/L (≈ 52 µM), respectively.

Consider `CC(C)(C)OC(=O)N1CCN(CCCCCOc2c(Br)cc(Br)cc2Oc2ccc(Br)cc2Br)CC1`, for which the values for the IC50 with HL-60 and in the data set with U-937 were 32.1 mg/L (≈ 42.5 µM) and 35.5 mg/L (≈ 46.9 µM), respectively.

`CC(C)(C)OC(=O)N1CCCN(CCCCCOc2c(Br)cc(Br)cc2Oc2ccc(Br)cc2Br)CC1`: the results for the IC50 in the data set with HL-60 and in the data set on U-937 were 44.8 mg/L (≈ 58.2 µM) and 39.5 mg/L (≈ 51.3 µM), respectively.

Source of the values: ChEMBL document CHEMBL2046309, “Semi-synthesis and bio-evaluation of polybrominated diphenyl ethers from the sponge Dysidea herbacea” (Bioorg Med Chem Lett, 2012).
